Reference: US9937151B2, “Carbapenem antibacterials with gram-negative activity” (priority 2010, dated 2018)

System: G(−) bacterial strains
Assay: Dilution antimicrobial susceptibility tests (MIC, NCCLS agar dilution / broth dilution)
Format: cell-based, Gram-negative organisms
Settings: unit assumed
Method: The MIC (minimum inhibitory concentration) was determined by the NCCLS (National Committee for Clinical Laboratory Standards) methods 2000. Methods for dilution antimicrobial susceptibility testing for bacteria that growth aerobically (M7-A5, vol. 20, No. 2). The agar dilution method for determining antimicrobial susceptibility was carried out using Mueller-Hinton agar. A final inoculum of 10^4 CFU/spot was applied with an inoculation device. Broth dilution tests were performed with 5×10^5 CFU/well in 96 well plates. The susceptibilities of streptococci were determined by Mueller-Hinton agar supplemented with 5% sheep blood. All assays were run with the indicated control strains, available from the ATCC (American Type Culture Collection, Rockville, Md.).
Abbreviations used in Table 1 are defined as follows: Cf-R: Ceftazidime Resistance, Ci-R: Ciprofloxacin Resistance, Gen-R: Gentamycin Resistance, Imp-R: Imipenem Resistance, Mp-R: Meropenem Resistance, Ofx-R: Ofloxacin Resistance, B+: β-lactamase Production, AmpC: AmpC-lactamase Hyper production, CBPase: Carbapenemase Production.

[1] = strain #1 Acinetobacter calcoaceticus
[2] = strain #2 Acinetobacter baumannii, Cf-R, Ci-R
[3] = strain #3 Acinetobacter baumannii, Cf-R, Ci-R, Mp-I
[4] = strain #4 Acinetobacter baumannii, Cf-R, Imp-I, CBPase
[5] = strain #7 Enterobacter aerogenes
[6] = strain #8 Enterobacter cloacae, Cf-R, B+
[7] = strain #9 Enterobacter cloacae, Cf-R
[8] = strain #10 Escherichia coli, Ci-R
[9] = strain #11 Escherichia coli, Ci-R, AmpC
[10] = strain #15 Klebsiella pneumoniae
[11] = strain #16 Moraxella catarrhalis
[12] = strain #21 Providencia rettgeri
[13] = strain #22 Salmonella typhimurium
[14] = strain #25 Shigella dysenteriae
[15] = strain #28 Stenotrophomonas maltophilia
[16] = strain #29 Pseudomonas aeruginosa
[17] = strain #30 Pseudomonas aeruginosa
[18] = strain #31 Pseudomonas aeruginosa, Ofx-R
[19] = strain #32 Pseudomonas aeruginosa, Cf-R
[20] = strain #33 Pseudomonas aeruginosa, Ci-R
[21] = strain #34 Pseudomonas aeruginosa, Gen-R
[22] = strain #35 Pseudomonas aeruginosa, Ip-R
[23] = strain #36 Pseudomonas aeruginosa, Cf-R, Ci-R, Mp-R

Measured: MIC

C[C@@H](O)[C@H]1C(=O)N2C(C(=O)O)=C(CN3CC(O)C(NC(=N)N)C3)[C@H](C)[C@H]12 (mixture of isomers) [Compound 176]
2 µg/mL: [22]
≤ 0.008 µg/mL: [11]
8 µg/mL: [23]
0.13 µg/mL: [1] | strain #6 Citrobacter freundii | [7] | strain #13 Escherichia coli | strain #14 Klebsiella oxytoca | [10] | [13] | [14]
0.063 µg/mL: strain #5 Citrobacter diversus | [6] | [8] | [9] | strain #12 Escherichia coli | strain #20 Proteus mirabilis | strain #26 Shigella sonnei | strain #27 Shigella flexneri | [15]
0.25 µg/mL: [5] | strain #19 Proteus vulgaris | [12] | strain #23 Serratia marcescens | strain #24 Serratia marcescens
1 µg/mL: [3] | [4] | strain #17 Morganella Morganii | [16] | [17] | [19] | [20] | [21]
0.5 µg/mL: [2] | strain #18 Morganella Morganii | [18]

CC(O)C1C(=O)N2C(C(=O)O)=C(CN3CC(O)C(C(=N)N)C3)C(C)C12 (mixture of isomers) [Compound 185b]
1 µg/mL: [4] | [16] | [17] | [19] | [20] | [21]
≤ 0.008 µg/mL: [11]
0.13 µg/mL: [1] | [7] | strain #14 Klebsiella oxytoca | [10] | strain #23 Serratia marcescens | strain #24 Serratia marcescens | [15]
0.5 µg/mL: [2] | strain #17 Morganella Morganii | strain #18 Morganella Morganii | [18]
8 µg/mL: [23]
2 µg/mL: [3]
4 µg/mL: [22]
0.063 µg/mL: strain #5 Citrobacter diversus | strain #6 Citrobacter freundii | [6] | strain #13 Escherichia coli | strain #20 Proteus mirabilis | [13] | [14] | strain #26 Shigella sonnei | strain #27 Shigella flexneri
0.25 µg/mL: [5] | strain #19 Proteus vulgaris | [12]
0.031 µg/mL: [8] | [9] | strain #12 Escherichia coli

C[C@@H](O)C1C(=O)N2C(C(=O)O)=C(CN3CC[C@H](C#N)C3)[C@H](C)C12 (stereo partly drawn) [Compound 7]
≤ 0.008 µg/mL: [11]
1 µg/mL: strain #17 Morganella Morganii | strain #18 Morganella Morganii
32 µg/mL: [22]
0.5 µg/mL: [5] | strain #19 Proteus vulgaris | [12] | strain #24 Serratia marcescens | [15]
4 µg/mL: [1] | [3] | [4]
> 32 µg/mL: [23]
0.063 µg/mL: strain #5 Citrobacter diversus
8 µg/mL: [17] | [19] | [20] | [21]
2 µg/mL: [2] | [18]
16 µg/mL: [16]
0.13 µg/mL: strain #6 Citrobacter freundii | [6] | [8] | [9] | strain #12 Escherichia coli | strain #13 Escherichia coli | strain #20 Proteus mirabilis | [13] | strain #26 Shigella sonnei | strain #27 Shigella flexneri
0.25 µg/mL: [7] | strain #14 Klebsiella oxytoca | [10] | strain #23 Serratia marcescens | [14]

C[C@@H](O)C1C(=O)N2C(C(=O)O)=C(CN3CC[C@H](C(N)=O)C3)[C@H](C)C12 (stereo partly drawn) [Compound 12]
0.25 µg/mL: strain #6 Citrobacter freundii | [7] | strain #13 Escherichia coli | strain #20 Proteus mirabilis | [13] | [14] | strain #26 Shigella sonnei | strain #27 Shigella flexneri | [15]
1 µg/mL: [4] | [5] | strain #18 Morganella Morganii | [12] | strain #24 Serratia marcescens | [18]
0.13 µg/mL: strain #5 Citrobacter diversus | [6] | [8] | [9] | strain #12 Escherichia coli
2 µg/mL: [3] | strain #17 Morganella Morganii
0.5 µg/mL: [1] | [2] | strain #14 Klebsiella oxytoca | [10] | strain #19 Proteus vulgaris | strain #23 Serratia marcescens
8 µg/mL: [22]
4 µg/mL: [16] | [17] | [19] | [20] | [21]
≤ 0.008 µg/mL: [11]
32 µg/mL: [23]

C[C@@H](O)C1C(=O)N2C(C(=O)O)=C(CN3CC[C@H](C(=O)NS(N)(=O)=O)C3)[C@H](C)C12 (stereo partly drawn) [Compound 19]
1 µg/mL: [4] | [5] | strain #19 Proteus vulgaris | [12] | strain #23 Serratia marcescens | strain #24 Serratia marcescens | [18]
8 µg/mL: [22]
0.25 µg/mL: strain #5 Citrobacter diversus | strain #6 Citrobacter freundii | [6] | [8] | [9] | strain #12 Escherichia coli | strain #13 Escherichia coli | strain #20 Proteus mirabilis | [13] | [14] | strain #26 Shigella sonnei | strain #27 Shigella flexneri | [15]
4 µg/mL: strain #17 Morganella Morganii | [16] | [17] | [19] | [20] | [21]
≤ 0.008 µg/mL: [11]
32 µg/mL: [23]
2 µg/mL: [3] | strain #18 Morganella Morganii
0.5 µg/mL: [1] | [2] | [7] | strain #14 Klebsiella oxytoca | [10]

C[C@@H](O)C1C(=O)N2C(C(=O)O)=C(CN3CC[C@H](N)C3)[C@H](C)C12 (stereo partly drawn) [Compound 27]
≤ 0.008 µg/mL: [11]
0.5 µg/mL: [2] | [7] | strain #14 Klebsiella oxytoca | [10] | strain #23 Serratia marcescens | [14] | [18]
0.13 µg/mL: strain #27 Shigella flexneri | [15]
2 µg/mL: [3] | strain #18 Morganella Morganii | [16] | [17] | [19] | [20] | [21]
0.25 µg/mL: [1] | strain #5 Citrobacter diversus | strain #6 Citrobacter freundii | [6] | [8] | [9] | strain #12 Escherichia coli | strain #13 Escherichia coli | strain #20 Proteus mirabilis | [13] | strain #26 Shigella sonnei
1 µg/mL: [4] | [5] | strain #19 Proteus vulgaris | [12] | strain #24 Serratia marcescens
8 µg/mL: [23]
4 µg/mL: strain #17 Morganella Morganii | [22]

CC(=O)N[C@H]1CCN(CC2=C(C(=O)O)N3C(=O)C([C@@H](C)O)C3[C@H]2C)C1 (stereo partly drawn) [Compound 32]
> 32 µg/mL: [23]
16 µg/mL: [16] | [17] | [19] | [20] | [21]
4 µg/mL: [3] | [5] | strain #18 Morganella Morganii | strain #19 Proteus vulgaris | [12] | [18]
0.5 µg/mL: [9] | strain #27 Shigella flexneri
1 µg/mL: strain #5 Citrobacter diversus | strain #6 Citrobacter freundii | [6] | [8] | strain #12 Escherichia coli | strain #13 Escherichia coli | strain #20 Proteus mirabilis | [13] | [14] | strain #26 Shigella sonnei | [15]
0.016 µg/mL: [11]
32 µg/mL: [22]
8 µg/mL: strain #17 Morganella Morganii
2 µg/mL: [1] | [2] | [4] | [7] | strain #14 Klebsiella oxytoca | [10] | strain #23 Serratia marcescens | strain #24 Serratia marcescens
